According to PubChem BioAssay (NCI):
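GI50 is the concentration that inhibits growth by half. TGI: total growth inhibition.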

Columns and labels:
Assay in all cases: growth of human tumour cells (NCI), 384-well format
786-0 renal = tested on: 786-0 renal
A498 renal = tested on: A498 renal
A549 NSCLC = tested on: A549 NSCLC
ACHN renal = tested on: ACHN renal
BT-549 breast = tested on: BT-549 breast
CAKI-1 renal = tested on: CAKI-1 renal
CCRF-CEM leukemia = tested on: CCRF-CEM leukemia
COLO 205 colon = tested on: COLO 205 colon
DU-145 prostate = tested on: DU-145 prostate
EKVX NSCLC = tested on: EKVX NSCLC
HCC-2998 colon = tested on: HCC-2998 colon
HCT-15 colon = tested on: HCT-15 colon
HL-60(TB) leukemia = tested on: HL-60(TB) leukemia
HOP-62 NSCLC = tested on: HOP-62 NSCLC
HOP-92 NSCLC = tested on: HOP-92 NSCLC
HS 578T breast = tested on: HS 578T breast
HT29 colon = tested on: HT29 colon
IGROV1 ovarian = tested on: IGROV1 ovarian
K-562 leukemia = tested on: K-562 leukemia
KM12 colon = tested on: KM12 colon
LOX IMVI melanoma = tested on: LOX IMVI melanoma
M14 melanoma = tested on: M14 melanoma
MALME-3M melanoma = tested on: MALME-3M melanoma
MCF7 breast = tested on: MCF7 breast
MDA-MB-231 breast = tested on: MDA-MB-231 breast
MDA-MB-435 melanoma = tested on: MDA-MB-435 melanoma
MDA-MB-468 breast = tested on: MDA-MB-468 breast
MOLT-4 leukemia = tested on: MOLT-4 leukemia
NCI-H226 lung = tested on: NCI-H226 lung
NCI-H23 lung = tested on: NCI-H23 lung
NCI-H322M lung = tested on: NCI-H322M lung
NCI-H460 NSCLC = tested on: NCI-H460 NSCLC
NCI-H522 lung = tested on: NCI-H522 lung
NCI/ADR-RES ovarian = tested on: NCI/ADR-RES ovarian
OVCAR-3 ovarian = tested on: OVCAR-3 ovarian
OVCAR-4 ovarian = tested on: OVCAR-4 ovarian
OVCAR-5 ovarian = tested on: OVCAR-5 ovarian
OVCAR-8 ovarian = tested on: OVCAR-8 ovarian
PC-3 prostate = tested on: PC-3 prostate
RPMI-8226 leukemia = tested on: RPMI-8226 leukemia
RXF 393 renal = tested on: RXF 393 renal
SF-268 CNS = tested on: SF-268 CNS
SF-295 CNS = tested on: SF-295 CNS
SF-539 CNS = tested on: SF-539 CNS
SK-MEL-28 melanoma = tested on: SK-MEL-28 melanoma
SK-MEL-5 melanoma = tested on: SK-MEL-5 melanoma
SK-OV-3 ovarian = tested on: SK-OV-3 ovarian
SN12C renal = tested on: SN12C renal
SNB-19 CNS = tested on: SNB-19 CNS
SNB-75 CNS = tested on: SNB-75 CNS
SR leukemia = tested on: SR leukemia
SW-620 colon = tested on: SW-620 colon
T-47D breast = tested on: T-47D breast
TK-10 renal = tested on: TK-10 renal
UACC-257 melanoma = tested on: UACC-257 melanoma
UACC-62 melanoma = tested on: UACC-62 melanoma
UO-31 renal = tested on: UO-31 renal

SMILES: N#Cc1cc(F)cc(Oc2ccc(S(=O)(=O)C(F)F)c3c2CC(F)(F)[C@H]3O)c1
- GI50 ([…]-0 renal): 31.6 µM
- TGI (786-0 renal): > 100 µM
- GI50 (A498 renal): 19.8 µM
- TGI (A498 renal): 44 µM
- GI50 (A549 NSCLC): 26.9 µM
- TGI (A549 NSCLC): 86.3 µM
- GI50 (ACHN renal): 33.2 µM
- TGI (ACHN renal): > 100 µM
- GI50 (BT-549 breast): 21.1 µM
- TGI (BT-549 breast): 47.2 µM
- GI50 (CAKI-1 renal): 38.8 µM
- TGI (CAKI-1 renal): > 100 µM
- GI50 (CCRF-CEM leukemia): 11.6 µM
- TGI (CCRF-CEM leukemia): 25.8 µM
- GI50 (COLO 205 colon): 38.7 µM
- TGI (COLO 205 colon): > 100 µM
- GI50 (DU-145 prostate): 26.2 µM
- TGI (DU-145 prostate): 90.6 µM
- GI50 (EKVX NSCLC): 27.3 µM
- TGI (EKVX NSCLC): 97.3 µM
- GI50 (HCC-2998 colon): 41.4 µM
- TGI (HCC-2998 colon): > 100 µM
- GI50 (HCT-15 colon): 27.8 µM
- TGI (HCT-15 colon): > 100 µM
- GI50 (HL-60(TB) leukemia): 18.4 µM
- TGI (HL-60(TB) leukemia): 33 µM
- GI50 (HOP-62 NSCLC): 30 µM
- TGI (HOP-62 NSCLC): > 100 µM
- GI50 (HOP-92 NSCLC): 16.3 µM
- TGI (HOP-92 NSCLC): 52 µM
- GI50 (HS 578T breast): 20 µM
- TGI (HS 578T breast): 69.8 µM
- GI50 (HT29 colon): 43.9 µM
- TGI (HT29 colon): > 100 µM
- GI50 (IGROV1 ovarian): 41.6 µM
- TGI (IGROV1 ovarian): > 100 µM
- GI50 (K-562 leukemia): 18.3 µM
- TGI (K-562 leukemia): > 100 µM
- GI50 (KM12 colon): 34.5 µM
- TGI (KM12 colon): > 100 µM
- GI50 (LOX IMVI melanoma): 20 µM
- TGI (LOX IMVI melanoma): 43.1 µM
- GI50 (M14 melanoma): 33.7 µM
- TGI (M14 melanoma): > 100 µM
- GI50 (MALME-3M melanoma): 28.8 µM
- TGI (MALME-3M melanoma): 93.6 µM
- GI50 (MCF7 breast): 19.6 µM
- TGI (MCF7 breast): 55.2 µM
- GI50 (MDA-MB-231 breast): 25.4 µM
- TGI (MDA-MB-231 breast): > 100 µM
- GI50 (MDA-MB-435 melanoma): 48.4 µM
- TGI (MDA-MB-435 melanoma): > 100 µM
- GI50 (MDA-MB-468 breast): 8.94 µM
- TGI (MDA-MB-468 breast): 26 µM
- GI50 (MOLT-4 leukemia): 13.9 µM
- TGI (MOLT-4 leukemia): 27.1 µM
- GI50 (NCI-H226 lung): 22.7 µM
- TGI (NCI-H226 lung): 71.8 µM
- GI50 (NCI-H23 lung): 14.2 µM
- TGI (NCI-H23 lung): 48.5 µM
- GI50 (NCI-H322M lung): 39.4 µM
- TGI (NCI-H322M lung): > 100 µM
- GI50 (NCI-H460 NSCLC): 18.1 µM
- TGI (NCI-H460 NSCLC): 33.9 µM
- GI50 (NCI-H522 lung): 19.8 µM
- TGI (NCI-H522 lung): 61.2 µM
- GI50 (NCI/ADR-RES ovarian): 16.1 µM
- TGI (NCI/ADR-RES ovarian): 52 µM
- GI50 (OVCAR-3 ovarian): 25.1 µM
- TGI (OVCAR-3 ovarian): 68.5 µM
- GI50 (OVCAR-4 ovarian): 14.8 µM
- TGI (OVCAR-4 ovarian): 53.2 µM
- GI50 (OVCAR-5 ovarian): 56.4 µM
- TGI (OVCAR-5 ovarian): > 100 µM
- GI50 (OVCAR-8 ovarian): 28.5 µM
- TGI (OVCAR-8 ovarian): > 100 µM
- GI50 (PC-3 prostate): 29.9 µM
- TGI (PC-3 prostate): > 100 µM
- GI50 (RPMI-8226 leukemia): 11.8 µM
- TGI (RPMI-8226 leukemia): 28.9 µM
- GI50 (RXF 393 renal): 21.3 µM
- TGI (RXF 393 renal): 73.8 µM
- GI50 (SF-268 CNS): 48.6 µM
- TGI (SF-268 CNS): > 100 µM
- GI50 (SF-295 CNS): 30.2 µM
- TGI (SF-295 CNS): > 100 µM
- GI50 (SF-539 CNS): 33.6 µM
- TGI (SF-539 CNS): > 100 µM
- GI50 (SK-MEL-28 melanoma): 53.3 µM
- TGI (SK-MEL-28 melanoma): > 100 µM
- GI50 (SK-MEL-5 melanoma): 15.1 µM
- TGI (SK-MEL-5 melanoma): 29.4 µM
- GI50 (SK-OV-3 ovarian): 26.2 µM
- TGI (SK-OV-3 ovarian): > 100 µM
- GI50 (SN12C renal): 32.7 µM
- TGI (SN12C renal): > 100 µM
- GI50 (SNB-19 CNS): 48.5 µM
- TGI (SNB-19 CNS): > 100 µM
- GI50 (SNB-75 CNS): 34.4 µM
- TGI (SNB-75 CNS): > 100 µM
- GI50 (SR leukemia): 15.7 µM
- TGI (SR leukemia): 30.5 µM
- GI50 (SW-620 colon): 63.5 µM
- TGI (SW-620 colon): > 100 µM
- GI50 (T-47D breast): 14.9 µM
- TGI (T-47D breast): 67.4 µM
- GI50 (TK-10 renal): 38.4 µM
- TGI (TK-10 renal): > 100 µM
- GI50 (UACC-257 melanoma): 19.2 µM
- TGI (UACC-257 melanoma): 48.7 µM
- GI50 (UACC-62 melanoma): 34.9 µM
- TGI (UACC-62 melanoma): > 100 µM
- GI50 (UO-31 renal): 36.4 µM
- TGI (UO-31 renal): > 100 µM
